Measured values reported in ChEMBL document CHEMBL3045127, “Esterase inhibition by synergists in the western flower thrips Frankliniella occidentalis” (Pest Manag Sci, 2011).
pIC50: −log10 of the molar value.

What was measured:
[1] = Inhibition of Frankliniella occidentalis FOR (western flower thrips) total esterase activity
[2] = Inhibition of Frankliniella occidentalis ACR (western flower thrips) total esterase activity
[3] = Inhibition of Frankliniella occidentalis MLFOM (western flower thrips) total esterase activity
[4] = Inhibition of Frankliniella occidentalis MET (western flower thrips) total esterase activity
[5] = system: Frankliniella occidentalis; assay: Resistance ratio, LC50 for Frankliniella occidentalis MLFOM (western flower thrips) to LC50 for Frankliniella occidentalis FOR; format: functional
[6] = system: Frankliniella occidentalis; assay: Insecticidal activity against Frankliniella occidentalis FOR (western flower thrips); format: functional, organism-based
[7] = system: Frankliniella occidentalis; assay: Insecticidal activity against Frankliniella occidentalis MLFOM (western flower thrips); format: functional
[8] = system: Frankliniella occidentalis; assay: Insecticidal activity against Frankliniella occidentalis MET (western flower thrips); format: functional
[9] = system: Frankliniella occidentalis; assay: Insecticidal activity against Frankliniella occidentalis ACR (western flower thrips); format: functional, organism-based
[10] = system: Frankliniella occidentalis; assay: Resistance ratio, LC50 for Frankliniella occidentalis MLFOM (western flower thrips) to LC50 for Frankliniella occidentalis MET; format: functional
[11] = system: Frankliniella occidentalis; assay: Resistance ratio, LC50 for Frankliniella occidentalis MLFOM (western flower thrips) to LC50 for Frankliniella occidentalis ACR; format: functional

## CCCCOCCOCCOCc1cc2c(cc1CCC)OCO2 [PIPERONYL BUTOXIDE]
[1]
  pIC50: 2.72
[2]
  pIC50: 2.57
[3]
  pIC50: 2.62
[4]
  pIC50: 2.67

## CNC(=O)Oc1cccc(/N=C/N(C)C)c1 [FORMETANATE]
[5]
  RatioLC50: 26
[6]
  LC50: 20160 mgAi/L
[7]
  LC50: 765 mgAi/L

## CNC(=O)Oc1cc(C)c(SC)c(C)c1 [METHIOCARB]
[6]; Frankliniella occidentalis, FOR
  pIC50: 5.53
[1]
  pIC50: 5.53
[8]
  LC50: 620 mgAi/L
[9]; Frankliniella occidentalis, ACR
  pIC50: 5.57
[2]
  pIC50: 5.57
[7]
  LC50: 15 mgAi/L
[3]
  pIC50: 5.72
[10]
  RatioLC50: 41
[4]
  pIC50: 5.70

## CC1(C)[C@H](C(=O)O[C@H](C#N)c2cccc(Oc3ccccc3)c2)[C@@H]1/C=C\C(=O)OC(C(F)(F)F)C(F)(F)F [ACRINATHRIN]
[9]
  LC50: 12870 mgAi/L
[7]
  LC50: 9 mgAi/L
[11]
  RatioLC50: 1430

## CCCCSP(=O)(SCCCC)SCCCC [S,S,S,-TRIBUTYLPHOSPHOROTRITHIOATE]
[1]
  pIC50: 6.29
[2]
  pIC50: 6.35
[3]
  pIC50: 6.34
[4]
  pIC50: 6.28
